Values after ≈ are worked out from the molar mass of the structure shown.
How the values were obtained:
[1] = test system: Perennials Ek and Sa (Eleocharis kuroguwai, Sagittaria aginashi); test: Example 1 field test, perennial weed control, Iri, Korea; assay type: in vivo; conditions: weed weight at 63 DAT
From the text: In the field test 48 day-old seedlings (Watanabe variety) were transplanted to plots 2.5 × 6 m. seeded with the weed seeds indicated in Table 1. At 5 and 10 DAT periods, the herbicides were applied to the plants (now at the 1.2 and 2.0 leaf stage, respectively, of grass weed) at the indicated rate in kilograms per hectare (kg/ha). The weed control and rice injury results for 3 replications are reported in percentages as of the indicated times of observation. The percentages given in the "Perennials" column are based on the weight of the weeds at 63 DAT, i.e., 42 gms/3.6 m^2 for the weedy check.

[2] = test system: Grass: Ec and Ecol (Echinochloa crusgalli, Echinochloa colonum); test: Example 3 field test on Dapog rice, weed control, Munoz, Philippines; assay type: in vivo; conditions: obs. 42 DAT
From the text: (§1) Treatments were replicated four times.

[3] = test system: Sedges: Cd, Ci, Fl (Cyperus difformis, Cyperus iria, Fimbristylis littoralis); test: as above; assay type: in vivo; conditions: obs. 42 DAT
From the text: as §1

[4] = test system: Grass: Ec and Ecol (Echinochloa crusgalli, Echinochloa colonum); test: Example 4 field test on ordinary rice, weed control, Munoz, Philippines; assay type: in vivo; conditions: obs. 36 DAT
From the text: as §1

[5] = test system: Sedges: Cd, Ci, Fl (Cyperus difformis, Cyperus iria, Fimbristylis littoralis); test: as above; assay type: in vivo; conditions: obs. 36 DAT
From the text: as §1

[6] = test system: ordinary transplanted rice; test: Example 4 field test, crop injury; conditions: obs. 36 DAT
Description: (§2) In the tests described in the tables below, the herbicides were formulated and used in granular form in conventional manner. […] The commercial herbicide used was a granular product having 5% active ingredient.
(§3) In the field tests of the herbicide of this invention with transplanted rice, the rice seedlings were grown in conventional manner, by seeding the rice in a typical seedbed of sandy loam to clay soil of the country wherein the test was conducted. For laboratory and greenhouse work the seedlings were obtained by seeding rice in a mixture of soil, e.g., Ray silt loam, and peat in wood flats. For purposes of testing the herbicides on younger rice seedlings (infant or Dapog) the rice was usually allowed to grow for 6-15 days before lifting for transplanting. Older (ordinary) rice plants were usually grown for a period of about 2-3 weeks, or as much as about 7 weeks before lifting. Since the period of growth is dependent upon climatic conditions, a better measure of when to transplant the rice seedling is the leaf stage of growth; for infant or Dapog rice the seedling is lifted at the 1.5-2 leaf stage of growth, and for ordinary seedlings at the 2.5-5 leaf stage. The seedlings were then transplanted to the test plots for evaluation of the herbicide for injury against weed species present with the transplanted rice. The herbicides were then applied to the growth medium of the weeds and transplant rice, either preemergent or postemergent with respect to the weeds and postemergent with respect to the transplanted rice. Application times are designated in the tables as "DAT", meaning "days after transplant". Application rates given in the tables refer to the amount of active ingredient used.
(§4) In this example comparative field tests were conducted with Herbicides A and B on ordinary transplanted rice at Munoz, Philippines.
(§5) Twenty-one (21) day-old ordinary wet bed seedlings of the Fortuna variety were transplanted to field plots and Herbicides A and B applied at 5 DAT and 14 DAT. The field plots were overseeded with barnyardgrass (E. crusgalli) at 2 kgs/ha. Treatments were replicated four times.

[7] = test system: ordinary transplanted rice; test: Example 4 field test, rice yield; assay type: in vivo, rice (Fortuna variety)
Description: as §2, §3, §4, §5

[8] = test system: Ec (Echinochloa crusgalli); test: Example 5 field test, weed control, JAAPR, Japan; assay type: in vivo; conditions: 1.5 kg/ha, 7 DAT
[9] = test system: Mv (Monochoria vaginalis); test: Example 5 field test, weed control, JAAPR, Japan; assay type: in vivo; conditions: 1.5 kg/ha, 7 DAT
[10] = test system: weeds Ec, Ann. Cyp, Mv, Obw, Ea; test: Example 5 field test, average weed control, JAAPR, Japan; conditions: 1.5 kg/ha, 7 DAT
Description: as §2, §3
The rice seedlings were grown to the 1.7 leaf stage for infant seedlings and to the 5.5 leaf stage for ordinary seedlings. Two days after puddling the soil in which the seedlings were to be transplanted, both infant and ordinary seedlings were transplanted into plots 8.5 m^2.
The weed symbol "Obw" represents "other broadleaf weeds" of unspecified identity. Results presented in Table 5 represent the average of 2 replications.

[11] = Example 10 fish toxicity, Japanese protocol; assay type: in vivo, carp; conditions: carp, in vivo, read-out: Medium Lethal Concentration
Description: In view of the importance of fish toxicological considerations, tests were conducted, using carp according to the Japanese protocol, to compare toxicity data for Herbicides A and B; results of those tests are shown in Table 10.

[12] = test system: weeds in transplanted rice; test: Field tests / general herbicidal activity in transplanted rice; assay type: in vivo; conditions: field tests
[13] = test system: weeds in ordinary transplanted rice; test: Example 4 field test, overall weed control; assay type: in vivo
From the text: as §1

CCCCOCN(C(=O)CCl)c1c(CC)cccc1CC [Herbicide B, n-(butoxymethyl)-2',6'-diethyl-2-chloroacetanilide, reference compound]
% Weed Control (Perennials Ek and Sa) ([1]; 5 DAT, 1.0 kg/ha): 0%
% Weed Control (Perennials Ek and Sa) ([1]; 5 DAT, 1.5 kg/ha): 41%
% Weed Control (Perennials Ek and Sa) ([1]; 5 DAT, 3.0 kg/ha): 0%
% Weed Control (Perennials Ek and Sa) ([1]; 10 DAT, 1.0 kg/ha): 0%
% Weed Control (Perennials Ek and Sa) ([1]; 10 DAT, 1.5 kg/ha): 0%
% Weed Control (Perennials Ek and Sa) ([1]; 10 DAT, 3.0 kg/ha): 0%
% Weed control, Grass (Ec and Ecol) ([2]; 5 DAT, 1.0 kg/ha): 100%
% Weed control, Grass (Ec and Ecol) ([2]; 5 DAT, 1.5 kg/ha): 100%
% Weed control, Grass (Ec and Ecol) ([2]; 5 DAT, 3.0 kg/ha): 100%
% Weed control, Grass (Ec and Ecol) ([2]; 14 DAT, 1.0 kg/ha): 0%
% Weed control, Grass (Ec and Ecol) ([2]; 14 DAT, 1.5 kg/ha): 0%
% Weed control, Grass (Ec and Ecol) ([2]; 14 DAT, 3.0 kg/ha): 60%
% Weed control, Sedges (Cd, Ci, Fl) ([3]; 5 DAT, 1.0 kg/ha): 100%
% Weed control, Sedges (Cd, Ci, Fl) ([3]; 5 DAT, 1.5 kg/ha): 100%
% Weed control, Sedges (Cd, Ci, Fl) ([3]; 5 DAT, 3.0 kg/ha): 100%
% Weed control, Sedges (Cd, Ci, Fl) ([3]; 14 DAT, 1.0 kg/ha): 0%
% Weed control, Sedges (Cd, Ci, Fl) ([3]; 14 DAT, 1.5 kg/ha): 0%
% Weed control, Sedges (Cd, Ci, Fl) ([3]; 14 DAT, 3.0 kg/ha): 70%
% Weed control, Grass (Ec and Ecol) ([4]; 5 DAT, 1.0 kg/ha): 100%
% Weed control, Grass (Ec and Ecol) ([4]; 5 DAT, 1.5 kg/ha): 100%
% Weed control, Grass (Ec and Ecol) ([4]; 5 DAT, 3.0 kg/ha): 100%
% Weed control, Grass (Ec and Ecol) ([4]; 14 DAT, 1.0 kg/ha): 0%
% Weed control, Grass (Ec and Ecol) ([4]; 14 DAT, 1.5 kg/ha): 0%
% Weed control, Grass (Ec and Ecol) ([4]; 14 DAT, 3.0 kg/ha): 50%
% Weed control, Sedges (Cd, Ci, Fl) ([5]; 5 DAT, 1.0 kg/ha): 100%
% Weed control, Sedges (Cd, Ci, Fl) ([5]; 5 DAT, 1.5 kg/ha): 100%
% Weed control, Sedges (Cd, Ci, Fl) ([5]; 5 DAT, 3.0 kg/ha): 100%
% Weed control, Sedges (Cd, Ci, Fl) ([5]; 14 DAT, 1.0 kg/ha): 0%
% Weed control, Sedges (Cd, Ci, Fl) ([5]; 14 DAT, 1.5 kg/ha): 0%
% Weed control, Sedges (Cd, Ci, Fl) ([5]; 14 DAT, 3.0 kg/ha): 50%
Crop Injury (%) ([6]; 5 DAT, 1.0 kg/ha): 0%
Crop Injury (%) ([6]; 5 DAT, 1.5 kg/ha): 0%
Crop Injury (%) ([6]; 5 DAT, 3.0 kg/ha): 0%
Crop Injury (%) ([6]; 14 DAT, 1.0 kg/ha): 0%
Crop Injury (%) ([6]; 14 DAT, 1.5 kg/ha): 0%
Crop Injury (%) ([6]; 14 DAT, 3.0 kg/ha): 0%
yield vs hand weeded check ([7]; 1.0 kg/ha, 14 DAT): statistically significantly lower than the hand weeded check
Yield (% of H.W. Check) ([7]; 5 DAT, 1.0 kg/ha): 115%
Yield (% of H.W. Check) ([7]; 5 DAT, 1.5 kg/ha): 110%
Yield (% of H.W. Check) ([7]; 5 DAT, 3.0 kg/ha): 100%
Yield (% of H.W. Check) ([7]; 14 DAT, 1.0 kg/ha): 82%
Yield (% of H.W. Check) ([7]; 14 DAT, 1.5 kg/ha): 86%
Yield (% of H.W. Check) ([7]; 14 DAT, 3.0 kg/ha): 94%
control of Ec in words [8]: substantially complete control
% Weed Control (Ec) ([8]; infant seedlings): 99%
% Weed Control (Ec) ([8]; ordinary seedlings): 81%
% Weed Control (Mv) ([9]; infant seedlings): 66%
% Weed Control (Mv) ([9]; ordinary seedlings): 86%
% Weed Control, Avg. ([10]; infant seedlings): 93%
% Weed Control, Avg. ([10]; ordinary seedlings): 86%
LC50 at 48 h ([11]; 48 hours): 1 µg/mL (≈ 3.21 µM)
LC50 at 96 h ([11]; 96 hours): 0.76 µg/mL (≈ 2.44 µM)
latest/optimum application stage of weeds [12]: 1 leaf stage
control of all weeds ([13]; 5 DAT): complete control of all weeds
weed control in words ([13]; 14 DAT, 1.0 and 1.5 kgs/ha): nil
weed control ([13]; 14 DAT, 3.0 kgs/ha): 50%

Reference: US3955959A, “Herbicide for use in transplanted rice” (priority 1974, dated 1976)
